Measurements as given in patent US5698578A, “Protein kinase C inhibitors” (Eli Lilly and Company, priority 1996, dated 1997).
“Also recorded” adds a separate entry of the source.

Legend:
[1] = from CN1C(=O)C(c2c[nH]c3ccccc23)=C(c2cn(CCOC(CCI)CO[Si](c3ccccc3)(c3ccccc3)C(C)(C)C)c3ccccc23)C1=O; amine bond; Cs2CO3; DMF; 8.98 mM; 68.0 h
[2] = test system: protein kinase C isozymes; details: literature; cited from earlier work
[3] = target: Protein Tyrosine Kinase (src) (Homo sapiens, UniProt P12931); experiment: Protein Tyrosine Kinase Assay (src); format: biochemical; details: Table 1; Raytide substrate
Chain of Protein Tyrosine Kinase (src) (P12931 whole entry, species assumed): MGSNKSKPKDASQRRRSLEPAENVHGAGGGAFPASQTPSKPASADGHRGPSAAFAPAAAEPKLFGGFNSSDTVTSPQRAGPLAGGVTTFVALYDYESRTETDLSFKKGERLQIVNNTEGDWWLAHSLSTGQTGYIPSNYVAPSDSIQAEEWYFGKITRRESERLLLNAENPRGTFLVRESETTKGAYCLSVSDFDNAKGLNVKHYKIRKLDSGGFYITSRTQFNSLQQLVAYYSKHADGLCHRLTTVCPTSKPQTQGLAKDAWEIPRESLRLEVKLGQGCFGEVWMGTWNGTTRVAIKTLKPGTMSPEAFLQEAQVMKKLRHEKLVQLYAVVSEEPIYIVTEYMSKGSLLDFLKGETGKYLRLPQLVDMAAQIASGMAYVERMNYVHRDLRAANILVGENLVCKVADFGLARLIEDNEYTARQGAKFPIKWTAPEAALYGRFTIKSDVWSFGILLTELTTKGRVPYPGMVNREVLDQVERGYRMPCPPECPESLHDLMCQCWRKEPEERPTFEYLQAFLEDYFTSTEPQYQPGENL
Procedure: Protein Tyrosine Kinase Assay (src)
The Assay components are the following:
4 μL DMSO or DMSO/inhibitor

PKC-α = PKC-α (Homo sapiens, UniProt P17252); experiment: PKC Enzyme Assay, alpha isozyme; format: biochemical; details: Table 1, 30 μM ATP, 30° C., 10 minutes
Procedure: PKC enzymes=alpha, beta I, beta II, gamma, delta, epsilon, eta and zeta.
Assay components in a total volume of 250 μL are as follows:
For all the enzymes either histone type HL (Worthington) or myelin basic protein is used as substrate. The assay is started by addition of protein kinase C enzyme incubated at 30° C. for 10 minutes and stopped by adding 0.5 mL of cold trichloroacetic acid (Amresco) followed by 100 μL of 1 mg/mL bovine serum albumin (Sigma, St. Louis, Mo.). The precipitate is collected by vacuum filtration on glass fiber filters employing a TOMTEC™ filtration system and quantified by counting in a beta scintillation counter.

SMILES: CN1C(=O)C2=C(C1=O)c1cn(c3ccccc13)CCC(CO[Si](c1ccccc1)(c1ccccc1)C(C)(C)C)OCCn1cc2c2ccccc21 (stereo not shown)
- ring closure, yield of all isomers [1]: 82%

SMILES: CN(C)CCCn1cc(C2=C(c3c[nH]c4ccccc34)C(=O)NC2=O)c2ccccc21 [3-[1-(3-dimethylaminopropyl)-indol-3-yl]-4-(1H-indol-3-yl)-1H-pyrrole-2,5-dione]
- PKC isozyme selectivity [2]: slight selectivity for the calcium dependent isozymes; also recorded: no difference, or possibly slight selectivity, for alpha over beta-1 and beta-2 isozymes

SMILES: O=C1NC(=O)C2=C1c1cn(c3ccccc13)CCO[C@H](CNCc1ccccc1)CCn1cc2c2ccccc21 [Example 18s]
- IC50 [3]: > 100 µM

SMILES: O=C1NC(=O)C2=C1c1cn(c3ccccc13)CCO[C@H](CNS(=O)(=O)c1ccccc1)CCn1cc2c2ccccc21 [Example 21s]
- IC50 (PKC-α): > 5 µM
